Measurements published in PubChem BioAssay (NCI).
Several values for one entry are separate records, joined by “and”; a condition that tells them apart may be missing. Identical values can stand only once.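 Following 48 hours of exposure in 96-well plates, responses at five concentrations were used to interpolate endpoints linearly. GI50 marks 50% less growth. TGI: total growth inhibition.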

Tests used:
Test in all cases: growth of human tumour cells (NCI), 48 h
ACHN renal = test system: ACHN renal
NCI-H522 lung = test system: NCI-H522 lung
OVCAR-8 ovarian = test system: OVCAR-8 ovarian
HOP-92 NSCLC = test system: HOP-92 NSCLC
A498 renal = test system: A498 renal
MDA-MB-435 = test system: MDA-MB-435
UACC-257 melanoma = test system: UACC-257 melanoma
RPMI-8226 leukemia = test system: RPMI-8226 leukemia
KM12 colon = test system: KM12 colon
HCC-2998 colon = test system: HCC-2998 colon

Compound | GI50 (ACHN renal) | TGI (ACHN renal) [µM] | GI50 (NCI-H522 lung) | TGI (NCI-H522 lung) [µM] | GI50 (OVCAR-8 ovarian) | TGI (OVCAR-8 ovarian) [µM] | GI50 (HOP-92 NSCLC) | TGI (HOP-92 NSCLC) | GI50 (A498 renal) | TGI (A498 renal) | GI50 (MDA-MB-435) | TGI (MDA-MB-435) [µM] | GI50 (UACC-257 melanoma) [µM] | TGI (UACC-257 melanoma) [µM] | GI50 (RPMI-8226 leukemia) | TGI (RPMI-8226 leukemia) [µM] | GI50 (KM12 colon) | TGI (KM12 colon) [µM] | GI50 (HCC-2998 colon) | TGI (HCC-2998 colon) [µM]
Cc1cc2c(cc1Cl)N1C(=O)NS(=O)(=O)N=C1NS2(=O)=O | > 100 µM | > 100 | > 100 µM | > 100 | > 100 µM | > 100 | > 100 µM | > 100 µM | > 100 µM | > 100 µM | > 100 µM | > 100 | > 100 | > 100 | > 100 µM | > 100 | > 100 µM | > 100 | > 100 µM | > 100
COc1c2ccccc2c(O)c2c(=O)ccn(C)c12 | 6.13 µM | 46.3 | 23.9 µM | > 100 | 4.42 µM | 38.1 | 25.6 µM | 91.1 µM | 10.7 µM | 41.6 µM | 2.03 µM | 4.32 | 3.45 | 12.6 | 5.96 µM | > 100 | 4.97 µM | 38.3 | 3.68 µM | 20
O=C(/C=C/c1ccccc1)OCC1=C[C@@H](O)[C@@H]2C=CO[C@@H](OC3OC(CO)C(O)C(O)C3O)[C@H]12 (stereo partly specified) | – | > 100 | – | > 100 | – | > 100 | – | > 100 µM | – | > 100 µM | – | > 100 | – | > 100 | – | > 100 | – | > 100 | – | > 100
O=C(Nc1ccccc1)Nc1ccc(Cl)c(Cl)c1 | 3.59 µM | 97.1 | 1.69 µM | 7.67 | 3.2 µM | 79.3 | 1.52 µM | 6.12 µM | 5.04 µM | 68.5 µM | 3.26 µM | 33.9 | 3.73 | 32.9 | 2.83 µM | 9.83 | 2.64 µM | 20.5 | 4.03 µM | > 100
COc1cc(NC(C)CCCN2C(=O)c3ccccc3C2=O)c2ncccc2c1OC (stereo unspecified) | 29.9 µM | > 100 | 35.4 µM | > 100 | 34.9 µM | > 100 | 18.2 µM | > 100 µM | 34.4 µM | > 100 µM | 34.2 µM | > 100 | 40.6 | > 100 | – | – | 29.7 µM | > 100 | 33.1 µM | > 100
COc1ccc(/C=C2/CN(CCC#N)C/C(=C\c3ccc(OC)cc3)C2=O)cc1 | 2.06 µM | 4.48 | 1.83 µM | 4.32 | 3.05 µM | > 100 | 1.85 µM | 20.8 µM | 5.03 µM | 21.5 µM | 2.99 µM | > 100 | 2.63 | 7.44 | 0.401 µM | 9.02 | 1.72 µM | 3.83 | 1.9 µM | 3.47
FC(F)(F)c1ccc(NCc2nc3ccccc3[nH]2)cc1 | 34.5 µM | > 100 | 24.7 µM | 95.3 | 27.5 µM | > 100 | 12.9 µM | 36.8 µM | 12.4 µM | 46.2 µM | 22.4 µM | 74.6 | 23.5 | 67.9 | 20.7 µM | 67.8 | 29.7 µM | 87.7 | 23.8 µM | 73.5
CNc1ncc2cc(-c3cc(NC(=O)NCCC(C)(C)C)c(F)cc3C)c(C)nc2n1 | 0.198 µM and 0.262 µM | > 24.6 | 0.294 µM and 0.333 µM | > 20.9 | 0.512 µM and 0.515 µM | > 100 | 0.0571 µM and 0.0903 µM | 0.423 µM and 0.511 µM | 0.149 µM and 0.167 µM | 0.743 µM and 0.65 µM | 0.0299 µM and 0.0389 µM | > 39.4 | 0.0139 | 0.0555 | 0.907 µM and 0.685 µM | > 52.6 | 0.405 µM and 0.448 µM | > 100 | 0.283 µM and 0.207 µM | > 77.2
O=c1c2cc(O)c(O)cc2oc2cc(O)c(C3OC(CO)C(O)C(O)C3O)c(O)c12 (stereo unspecified) | – | > 100 | – | > 100 | – | > 100 | – | > 100 µM | – | > 100 µM | – | > 100 | – | > 100 | – | > 100 | – | > 100 | – | > 100
CNCCNc1nc2ccccc2c2c(=O)c3cccc(C)c3sc12 | 1.7 µM | 7.11 | 1.3 µM | 4.42 | 1.94 µM | 7.65 | 1.69 µM | 10.8 µM | 1.07 µM | 3.94 µM | 1.05 µM | 2.22 | 0.944 | 1.95 | 1.16 µM | 2.96 | 1.11 µM | 2.88 | 0.824 µM | 1.65
COc1cccc(/C=C\c2ccnc3ccccc23)c1 | – | > 10 | – | > 10 | – | > 10 | – | > 10 µM | – | > 10 µM | – | > 10 | – | > 10 | – | > 10 | – | > 10 | – | > 10
C#Cc1ccc(-n2c(/C=C/c3ccc4ccccc4c3)nc3ncccc3c2=O)cc1 | 2.57 µM | > 100 | 5.11 µM | > 100 | 3.05 µM | > 100 | 1.63 µM | 6.89 µM | 1.69 µM | 5.86 µM | 2.06 µM | > 100 | – | – | 0.451 µM | > 100 | 2.95 µM | > 100 | 2.32 µM | 5.04
COc1cc(/C=C/c2ccccn2)cc(OC)c1OC | – | > 10 | – | > 10 | – | > 10 | – | > 10 µM | – | > 10 µM | – | > 10 | – | > 10 | – | > 10 | – | > 10 | – | > 10
COc1ccc2c(c1)C(=O)c1c-2c(N2CCN(C(=O)CCNCCNCCO)CC2)nc2ccccc12 | 16 µM | 30.8 | 17.5 µM | 46.8 | 19.5 µM | 48.3 | 3.77 µM | 18.2 µM | 18.7 µM | 34.4 µM | 21.7 µM | 47.8 | 20.8 | 42.1 | 11.3 µM | 33.2 | 16.3 µM | 53.1 | 13.8 µM | 30.1
